≈ marks a conversion by molar mass, not a printed value. Where two headings read alike, the source gives them in different places.
Experiments:
[1] = test system: P. falciparum malaria parasite clone D6 (chloroquine sensitive); test: In vitro anti-malarial activity, [3H]hypoxanthine uptake, D6 clone; format: cell-based, Plasmodium falciparum
Source text: (§1) For in vitro toxicological studies, the following cell line was chosen: human adult liver epithelial cells (THLE-3). THLE-3 cells express phenotypic characteristics of normal adult liver epithelial cells and constitute a valuable model for pharmacotoxicological studies.
(§2) Two P. falciparum malaria parasite clones, W2 and D6, from Malaria Research and Reference Reagent Resource Center (MR4), were utilized in susceptibility testing. […] Test compounds were initially dissolved in DMSO and diluted 400 fold in RPMI 1640 culture medium supplemented with 25 mM Hepes, 32 mM NaHCO3 and 10% Albumax I (Gibco, N.Y.). These solutions were subsequently serially diluted two-fold with a Beckman Biomek® 1000 Robot (Fullerton, Calif.) over 11 different concentrations. The parasites were exposed to serial dilutions of each compound for 48 hrs and incubated at 37° C. with 5% O2, 5% CO2 and 90% N2 prior to the addition of [^3H]hypoxanthine. After a further incubation of 18 hrs, parasite DNA was harvested from each microtiter well using Packard Filtermate™ 196 Harvester (Meriden, Conn.) onto glass filters. Uptake of [^3H]hypoxanthine was measured with a Packard TopCount Liquid Scintillation Counter (Packard Instrument Co.).

[2] = test system: P. falciparum malaria parasite clone W2 (chloroquine resistant); test: In vitro anti-malarial activity, [3H]hypoxanthine uptake, W2 clone; format: cell-based, Plasmodium falciparum
Source text: as §1, §2

[3] = test system: human adult liver epithelial cells (THLE-3); test: In vitro toxicity evaluation, Sulforhodamine B; format: cell-based; conditions: for IC50: Homo sapiens, read-out: IC50 THLE-3; for Selectivity, IC50 (THLE-3)/IC50 (D6): ratio THLE-3 vs D6
Procedure: as §1
Human adult liver epithelial cells (THLE-3) was maintained in tissue culture flasks in Waymouth's medium (Gibco, N.Y.) supplemented with 10% fetal bovine serum. Toxicity tests were performed in 96-well tissue culture plates using the protein-binding dye Sulforhodamine B. Test compounds were serially diluted and added to empty wells of the 96-well plate. THLE-3 cells in their culture medium were immediately seeded into the wells. Solvent blanks (no compound) were run in each test. After 72 hours under culture conditions cells were fixed to the plate by layering 50% TCA (4° C.) over the growth media in each well to produce a final TCA concentration of 10%. After incubating for one hour at 4° C., cultures were washed five times with tap water and left air-dried. Wells were stained for 30 min. with 0.4% (w/v) SRB in 1% acetic acid and washed four times with 1% acetic acid. Cultures were left air-dried and bound dye was solubilized with 10 mM Tris base (pH 10.5) for 15 min. on a gyratory shaker at room temperature. A Spectra MAX Plus Microtiter Plate Reader (Molecular Devices, Menlo Park, Calif.) was used to measure the optical density at wavelengths of 490-530 nm.

[4] = test system: P. berghei in mice; format: in vivo; conditions: for toxicity in mice: highest dose tested; for toxicity in mice / blood schizonticidal activity, in words: oral
Procedure: Drugs were mixed in 0.5% hydroxycellulose 0.1% Tween 80 and administered orally b.i.d. on days 3, 4 and 5 postinfection. CD-1 male or female mice, 5 weeks of age, were infected with 5×10^4 parasitized erythrocytes of Plasmodium berghei KBG-173 mm strain. Blood films were taken on day +6 and weekly thereafter until day +60. Parasitemias were calculated and SD90 value (dose suppressing 90% of the parasites in treated groups compared with the infected non-treated controls) on day +6 postinfection. Mortality data was tabulated for 60 days at which time all mice surviving that were blood film negative were considered cured.
[…] The activity of these compounds were compared with the untreated control: In untreated controls, death occurs within 8-9 days. Compounds which are effective against Plasmodium berghei infection increase the mean survival time of the infected animals when compared with the untreated controls. Mice that survive after thirty days and are free of parasites in blood are considered cured.
Efficacy of the drug is determined by the number of cures at the end of a 30 day period and the increase in mean survival time over the control (ΔMST). The effect of the test drugs also could be determined by the reduction of the parasitemia (percentage of the red blood cells detected with the parasites) over the untreated control on day 6, one day after the treatment is completed. Both these methods yield virtually identical results. If the dose of test compounds are inadequate, after initial clearance, residual parasites will multiply and relapses will occur within thirty days.

[5] = test system: P. berghei in mice; test: Suppressive blood schizontocidal test in mice, subcutaneous single dose; format: in vivo, Plasmodium berghei; conditions: for Mice surviving 60 days/Mice infected and treated: 72 h after infection
Procedure: Mice were treated with a single dose of the compound administered subcutaneously 72 h after infection. Number of cures is the number of mice surviving, out of five, 60 days postinfection.

[6] = test system: Plasmodium berghei KBG-173 in mice; test: Prophylactic test in mice, oral; format: in vivo; conditions: for Mice infected and treated/Mice surviving day 60: oral; for protection from malaria (oral prophylactic activity): single dose of 0.5 mg/kg within 2 days pre-infection through 2 days post-infection
Procedure: Compounds were tested for oral prophylactic activity.
Drugs were mixed in 0.5% hydroxycellulose 0.1% Tween 80 and administered orally b.i.d. either on day 5, 4, 3, 2, or 1 prior to the infection or 1 or 2 days postinfection. CD-I male or female mice, 5 weeks of age, were infected with 5×10^4 parasitized erythrocytes of Plasmodium berghei KBG-173 mm strain. Blood films were taken on day +6 and weekly thereafter until day+30. […]

[7] = oral dose 0.25 mg/kg/day (total dose 0.75 mg/kg)
[8] = oral dose 1.0 mg/kg/day (total dose 3.0 mg/kg)
[9] = oral dose 4.0 mg/kg/day (total dose 12 mg/kg)
[10] = oral dose 16 mg/kg/day (total dose 48 mg/kg)
[11] = oral dose 64 mg/kg/day (total dose 192 mg/kg)
[12] = Plasmodium falciparum, D6; read-out: IC50 D6 Strain
[13] = Plasmodium falciparum, W2; read-out: IC50 W2 Strain
[14] = THLE3, THLE-3 cells, 72 hours, toxicity
[15] = subcutaneous single dose 1 mg/kg
[16] = subcutaneous single dose 2 mg/kg
[17] = subcutaneous single dose 4 mg/kg
[18] = subcutaneous single dose 8 mg/kg
[19] = subcutaneous single dose 16 mg/kg
[20] = subcutaneous single dose 32 mg/kg
[21] = subcutaneous single dose 64 mg/kg
[22] = subcutaneous single dose 128 mg/kg
[23] = day of treatment 1, dose 0.5 mg/kg
[24] = day of treatment 1, dose 2 mg/kg
[25] = day of treatment 1, dose 8 mg/kg
[26] = day of treatment 1, dose 32 mg/kg
[27] = day of treatment 2, dose 0.5 mg/kg
[28] = day of treatment 2, dose 2 mg/kg
[29] = day of treatment 2, dose 8 mg/kg
[30] = day of treatment 2, dose 32 mg/kg
[31] = day of treatment −1, dose 0.5 mg/kg
[32] = day of treatment −1, dose 2 mg/kg
[33] = day of treatment −1, dose 8 mg/kg
[34] = day of treatment −1, dose 32 mg/kg
[35] = day of treatment −2, dose 0.5 mg/kg
[36] = day of treatment −2, dose 2 mg/kg
[37] = day of treatment −2, dose 8 mg/kg
[38] = day of treatment −2, dose 32 mg/kg

Compound	Selectivity, IC50 (THLE-3)/IC50 (D6) [3]	Mice surviving 60 days/Mice infected and treated [4, 7]	Mice surviving 60 days/Mice infected and treated [4, 8]	Mice surviving 60 days/Mice infected and treated [4, 9]	Mice surviving 60 days/Mice infected and treated [4, 10]	Mice surviving 60 days/Mice infected and treated [4, 11]	IC50 [1, 12] [ng/mL]	inhibitory activity against chloroquine sensitive malaria strain (D-6), in words ([1]; in vitro)	IC50 [2, 13] [ng/mL]	inhibitory activity against chloroquine resistant malaria strain (W-2), in words ([2]; in vitro)	IC50 [3, 14] [ng/mL]	toxicity in mice [4]	blood schizonticidal activity, in words [4]	activity by the subcutaneous route of administration, in words [5]	Mice surviving 60 days/Mice infected and treated [5, 15]	Mice surviving 60 days/Mice infected and treated [5, 16]	Mice surviving 60 days/Mice infected and treated [5, 17]	Mice surviving 60 days/Mice infected and treated [5, 18]	Mice surviving 60 days/Mice infected and treated [5, 19]	Mice surviving 60 days/Mice infected and treated [5, 20]	other results
CCN(CC)CCCC(C)Nc1ccnc2cc(Cl)ccc12 (stereo not shown) [Chloroquine, reference compound]	463	0/7	0/7	2/7	4/7	0/7	–	–	–	–	–	–	–	–	–	–	–	–	–	–	IC50 ([1]; Plasmodium falciparum, D6, read-out: IC50 D6 Strain): 6.3 ng/mL (≈ 0.0197 µM); IC50 ([2]; Plasmodium falciparum, W2, read-out: IC50 W2 Strain): 108 ng/mL (≈ 0.338 µM); IC50 ([3]; THLE3, 72 h): 2920 ng/mL (≈ 9.13 µM)
C=C[C@@H]1[C@H]2OCOC2[C@@]23CC24c2nc5ccc(OC)cc5cc2C(=O)N[C@H]4CN13 (stereo partly shown) [Formula II]	7.0 × 10^4	7/7	7/7	7/7	7/7	7/7	0.29	equally potent inhibitory activity	0.33	equally potent inhibitory activity	18900	no mice showed toxicity	very active	excellent activity	4/5	5/5	5/5	5/5	5/5	5/5	Mice surviving 60 days/Mice infected and treated [5, 21]: 5/5; Mice surviving 60 days/Mice infected and treated [5, 22]: 5/5; Mice infected and treated/Mice surviving day 60 [6, 23]: 5/5; Mice infected and treated/Mice surviving day 60 [6, 24]: 5/5; Mice infected and treated/Mice surviving day 60 [6, 25]: 5/5; Mice infected and treated/Mice surviving day 60 [6, 26]: 5/5; Mice infected and treated/Mice surviving day 60 [6, 27]: 5/5; Mice infected and treated/Mice surviving day 60 [6, 28]: 5/5; Mice infected and treated/Mice surviving day 60 [6, 29]: 5/5; Mice infected and treated/Mice surviving day 60 [6, 30]: 5/5; Mice infected and treated/Mice surviving day 60 [6, 31]: 5/5; Mice infected and treated/Mice surviving day 60 [6, 32]: 5/5; Mice infected and treated/Mice surviving day 60 [6, 33]: 5/5; Mice infected and treated/Mice surviving day 60 [6, 34]: 5/5; Mice infected and treated/Mice surviving day 60 [6, 35]: 5/5; Mice infected and treated/Mice surviving day 60 [6, 36]: 5/5; Mice infected and treated/Mice surviving day 60 [6, 37]: 5/5; Mice infected and treated/Mice surviving day 60 [6, 38]: 5/5; protection from malaria (oral prophylactic activity) [6]: completely protected
C=C[C@@H]1[C@@H](OC)[C@H](OC)[C@@]23CC24c2cc5cc(OC)ccc5nc2C(=O)N[C@H]4CN13 (stereo partly shown) [Formula I]	4.1 × 10^4	7/7	7/7	7/7	7/7	7/7	0.47	equally potent inhibitory activity	0.43	equally potent inhibitory activity	19400	no mice showed toxicity	very active	excellent activity	4/5	5/5	5/5	5/5	5/5	5/5	Mice surviving 60 days/Mice infected and treated [5, 21]: 5/5; Mice surviving 60 days/Mice infected and treated [5, 22]: 5/5; Mice infected and treated/Mice surviving day 60 [6, 23]: 5/5; Mice infected and treated/Mice surviving day 60 [6, 24]: 5/5; Mice infected and treated/Mice surviving day 60 [6, 25]: 5/5; Mice infected and treated/Mice surviving day 60 [6, 26]: 5/5; Mice infected and treated/Mice surviving day 60 [6, 27]: 5/5; Mice infected and treated/Mice surviving day 60 [6, 28]: 5/5; Mice infected and treated/Mice surviving day 60 [6, 29]: 5/5; Mice infected and treated/Mice surviving day 60 [6, 30]: 5/5; Mice infected and treated/Mice surviving day 60 [6, 31]: 5/5; Mice infected and treated/Mice surviving day 60 [6, 32]: 5/5; Mice infected and treated/Mice surviving day 60 [6, 33]: 5/5; Mice infected and treated/Mice surviving day 60 [6, 34]: 5/5; Mice infected and treated/Mice surviving day 60 [6, 35]: 5/5; Mice infected and treated/Mice surviving day 60 [6, 36]: 5/5; Mice infected and treated/Mice surviving day 60 [6, 37]: 5/5; Mice infected and treated/Mice surviving day 60 [6, 38]: 5/5; protection from malaria (oral prophylactic activity) [6]: completely protected
OC(c1cc(C(F)(F)F)nc2c(C(F)(F)F)cccc12)C1CCCCN1 (stereo not shown) [Mefloquine, reference compound]	794	–	–	–	–	–	3.4 (≈ 0.00899 µM)	–	5.6 (≈ 0.0148 µM)	–	2700 (≈ 7.14 µM)	–	–	–	–	–	–	–	–	–	–

Source: patent US7851508B2, “Natural product derivatives with antimalarial activity” (Radix Pharmaceuticals, Inc., priority 2008, dated 2010)
